For three molecules, Ki results are on record in ChEMBL document CHEMBL2321754, “Novel small molecule protein arginine deiminase 4 (PAD4) inhibitors” (Bioorg Med Chem Lett, 2013).

For one test, the target named is Carbonic anhydrase 2 (Homo sapiens, UniProt P00918). In words: Inhibition of human CA2 by stopped-flow assay.
The target in a further test is Carbonic anhydrase 9 (Homo sapiens, UniProt Q16790).
For a further test, the target named is Carbonic anhydrase 1 (Homo sapiens, UniProt P00915). In words: Inhibition of human CA1 by stopped-flow assay.
Chain of Carbonic anhydrase 1 (P00915 whole entry): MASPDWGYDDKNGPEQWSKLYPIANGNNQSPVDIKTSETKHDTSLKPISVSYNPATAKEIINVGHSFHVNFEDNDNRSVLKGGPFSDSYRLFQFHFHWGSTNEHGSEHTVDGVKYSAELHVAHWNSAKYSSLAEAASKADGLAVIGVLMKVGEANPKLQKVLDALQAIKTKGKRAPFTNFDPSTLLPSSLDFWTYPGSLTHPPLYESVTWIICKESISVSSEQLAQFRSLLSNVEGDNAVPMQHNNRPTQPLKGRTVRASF
The next test has as its target Carbonic anhydrase 12 (Homo sapiens, UniProt O43570). Description: Inhibition of human CA12 by stopped-flow assay.

Chain of Carbonic anhydrase 12 (O43570 whole entry): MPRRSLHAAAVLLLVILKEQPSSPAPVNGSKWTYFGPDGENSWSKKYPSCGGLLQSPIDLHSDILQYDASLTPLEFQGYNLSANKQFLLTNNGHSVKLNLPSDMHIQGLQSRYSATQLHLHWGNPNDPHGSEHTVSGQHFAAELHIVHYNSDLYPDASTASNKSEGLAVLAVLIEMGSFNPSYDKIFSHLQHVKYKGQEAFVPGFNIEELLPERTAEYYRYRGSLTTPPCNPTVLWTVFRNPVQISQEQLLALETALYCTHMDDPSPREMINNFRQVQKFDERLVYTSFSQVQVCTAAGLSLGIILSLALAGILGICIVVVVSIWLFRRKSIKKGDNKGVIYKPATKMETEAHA
Description for Carbonic anhydrase 9: Inhibition of human CA9 by stopped-flow assay

`N=C(N)Nc1ccc(O)cc1`: the Ki on Carbonic anhydrase 2 amounted to 7510 nM; on Carbonic anhydrase 9, 4130 nM; at Carbonic anhydrase 1, 8340 nM; at Carbonic anhydrase 12, 14600 nM.

On to `N=C(N)NCCc1ccc(S(N)(=O)=O)cc1`, for which the Ki at Carbonic anhydrase 2 was 89 nM; on Carbonic anhydrase 9, 34 nM; on Carbonic anhydrase 1 it was 240 nM; on Carbonic anhydrase 12 it was 14 nM.

For `N=C(N)Nc1ccc(C(=O)O)cc1` [4-GUANIDINO-BENZOIC ACID], the inhibition constant Ki at Carbonic anhydrase 2 is 1150 nM; at Carbonic anhydrase 9, 2560 nM; at Carbonic anhydrase 1, 630 nM; on Carbonic anhydrase 12 it was 480 nM.

The term Ki denotes the equilibrium dissociation constant of an inhibitor or competing ligand from its target. High values mean a looser hold on the target, low ones a stronger hold on the target.
